Reference: patent US20060003988A1, “Compounds capable of inhibiting immunocyte-related allergic immune reactions” (priority 2002, published 2006)
Where a name gives a salt, the structure may show the parent alone.

Legend:
[1] = test system: IL-6 production from macrophages; test: IL-6 production from macrophages upon LPS stimulation (ELISA); type: cell-based, human
Excerpt: (§1) Specifically, in order to produce IL-6 and THF-α from macrophages, peripheral blood mononuclear cells were adhered to a plastic plate to isolate and recover macrophages.

[2] = test system: IFN-γ production from peripheral blood T cells; test: IFN-γ production from peripheral blood T cells (ELISA); type: cell-based, human; conditions: each costimulation condition; 24 hours; ebastine 0.1 μM to 10 μM, carebastine 1 μM to 100 μM
Protocol: (§2) In order to analyze whether or not H1 blockers have an inhibitory effect on cytokine production induced by the various costimulations described above, the present inventors measured Th1 type cytokines (IL-2, and IFN-γ) in the culture supernatant induced by the various costimulations described above.
(§3) The antibody-coated plates and T cells were prepared similarly as in Example 1 except that the OKT3 concentration was 0.5 μg/ml. The cytokine production by T cells was analyzed in triplicate using 96-well flat-bottomed plates by the same method employed in the T cell proliferation analysis described above. After culturing for 24 hours, the culture supernatant was tested using ELISA kit (IL-2: Biosource International, Camarillo, Calif.; IFN-γ: R&D systems, Minneapolis, Minn.) to quantify IL-2 and IFN-γ.

[3] = test system: IL-6 production from peripheral blood T cells; test: IL-6 production from peripheral blood T cells (ELISA); type: cell-based, human; conditions: for effect on IL-6 production from T cells: each costimulation condition
Protocol: as §3
(§4) The present inventors analyzed the effects of H1 blockers on the production of inflammatory cytokines, such as IL-6 and TNF-α, from T cells due to the various costimulation pathways described above. This analysis was performed similarly as in Example 2 above except for the use of an ELISA kit for measuring IL-6 and TNF-α (R&D systems, Minneapolis, Minn.).

[4] = test system: IL-2 production from peripheral blood T cells; test: IL-2 production from peripheral blood T cells (ELISA); type: cell-based, human; conditions: each costimulation condition; 24 hours; up to maximum concentration (10 μM ebastine, 100 μM carebastine)
Protocol: as §2, §3

[5] = test system: TNF-α production from macrophages; test: TNF-α production from macrophages upon LPS stimulation (ELISA); type: cell-based, human
Excerpt: as §1

[6] = test system: IL-5 production from peripheral blood T cells; test: IL-5 production from peripheral blood T cells (ELISA); type: cell-based, human; conditions: for effect on IL-5 production: each costimulation condition, concentration-dependent
Protocol: as §3
(§5) Th2 type CD4 T cells play an important role in allergic diseases. […] This analysis was performed similarly as in Example 2 except that ELISA (IL-4: Biosource International, Camarillo, Calif.; IL-5: R&D systems, Minneapolis, Minn.) was used to quantify IL-4 and IL-5.

[7] = test system: IL-4 production from peripheral blood T cells; test: IL-4 production from peripheral blood T cells (ELISA); type: cell-based, human
Protocol: as §3, §5

[8] = test system: TNF-α production from peripheral blood T cells; test: TNF-α production from peripheral blood T cells (ELISA); type: cell-based, human; conditions: for effect on TNF-α production from T cells: each costimulation condition
Protocol: as §3, §4

[9] = in vivo; cited from earlier work
[10] = according to the Interview Form; cited from earlier work
PHA-stimulated T cells [11] = test: Transendothelial migration of PHA-stimulated T cells through ECV304 monolayer; type: cell-based, human; conditions: compound present during migration, eight hours
Protocol: Since fresh resting-stage T cells hardly migrate by permeating a monolayer of endothelial cells, these T cells were activated using PHA (10 μg/ml) prior to performing transendothelial migration analysis.
Specifically, the analysis of transendothelial migration was performed by slightly modifying a known method (Iwata S, Yamaguchi N, Munakata Y, Ikushima H, Lee J F, Hosono O, Schlossman S F, Morimoto C. “CD26/DPPIV differentially regulates the chemotaxis of T cells and monocytes toward RANTES. Possible mechanism for the switch from innate to acquired immune response.” Int Immunol. 11:417-426, 1999). Human endothelial cell strain ECV304 was obtained from the American Tissue Culture Collection (ATCC; Rockville, Md.) and cultured for 48 hours on Transwell cell culture inserts (Corning Costar, Cambridge, Mass.) with a pore size of 3.0 μm. The cells were loaded onto a 24-well plastic plate for cell culture (FALCON), and mixed with H1 blockers at various concentrations using Transwell assay medium (RPMI1640 medium, BSA 0.6%, Penicillin G/Streptomycin 1%, HEPES 50 mM). Two-hundred μl of PHA-stimulated T cells (1×10^7/ml) were then placed in the upper chamber and 600 μl of assay medium was placed in the lower chamber, and migration was performed for eight hours at 37° C. under 5% CO2. After recovery of the cells, the number of cells was counted for one minute by flow cytometry (FACSCalibur, Nippon Becton-Dickinson, Tokyo, Japan).

H2 receptors [12] = molecular target: T1, H2 receptors (Homo sapiens, UniProt P25021); conditions: read-out: IC50 in the inhibition of ligand binding to H2 receptors; cited from earlier work
[13] = molecular target: human recombinant H1 receptors (Homo sapiens, UniProt P35367); conditions: read-out: IC50 of inhibiting ligand binding to H1 receptors; cited from earlier work
PHA-stimulated T cells [14] = test: Adhesion of PHA-stimulated T cells to endothelial cells (fluorescence microscopy); conditions: 1.0 μM to 5.0 μM; six hours; dose-dependent
Excerpt: After six hours, the culture dish was washed three times with PBS.

[15] = dose increased to five times from that used for the treatment; cited from earlier work
[16] = test system: histamine-induced contraction in trachea samples; conditions: trachea samples excised from guinea pigs; read-out: IC50 of the effects on histamine-induced contraction; cited from earlier work
T cells = test: T cell proliferation (3H-thymidine incorporation) via different costimulation pathways; type: cell-based, human; conditions: stimulation on CD3 combined with CD26, CD28 or PMA; all concentrations used
Protocol: The first pathway was PMA, the second pathway stimulation on CD28 that is one of the representative T cell costimulation molecules, and the third pathway stimulation on CD26 that is expressed on CD4^+ memory T cells. The simulation on CD3 was applied together with all of these stimulations. The stimulation on CD3, CD26, and CD28 was performed using monoclonal antibodies OKT3, 1F7 (Morimoto C et al., 1989, supra), and 4B10 (immi CD et al., 1991, supra), respectively. OKT3 was purchased from the American Tissue Culture Collection (ATCC, Rockville, Md.), while 4B10 and 1F7 were purified from mouse ascites of hybridomas established in the present inventors' laboratory (Gimmi C D et al., 1991, supra; Morimoto C et al., 1989, supra). […]
Phosphate-buffer saline (PBS) (100 μl) containing either one of the monoclonal antibodies, OKT3 (0.05 μg/ml), 1F7 (1 μg/ml), or 4B10 (2 μg/ml), was coated in triplicate according to a known method (Dang N H et al., 1990, supra) on flat-bottomed 96-well plates (Coster, Cambridge, Mass.), and the plates were then incubated overnight at 4° C. […] The cells were stimulated for eight hours with 1 μCi ^3H-thymidine (ICN Radiochemicals, Irvine, Calif.) per well, recovered on a glass fiber filter (Wallac, Turku, Finland) to quantify the incorporated radioactivity with a liquid scintillation counter (Wallac).

H2 receptors [17] = molecular target: T1, H2 receptors; conditions: at maximum concentration; cited from earlier work
[18] = each costimulation condition, concentration-dependent

T1 sequence (P25021 whole entry): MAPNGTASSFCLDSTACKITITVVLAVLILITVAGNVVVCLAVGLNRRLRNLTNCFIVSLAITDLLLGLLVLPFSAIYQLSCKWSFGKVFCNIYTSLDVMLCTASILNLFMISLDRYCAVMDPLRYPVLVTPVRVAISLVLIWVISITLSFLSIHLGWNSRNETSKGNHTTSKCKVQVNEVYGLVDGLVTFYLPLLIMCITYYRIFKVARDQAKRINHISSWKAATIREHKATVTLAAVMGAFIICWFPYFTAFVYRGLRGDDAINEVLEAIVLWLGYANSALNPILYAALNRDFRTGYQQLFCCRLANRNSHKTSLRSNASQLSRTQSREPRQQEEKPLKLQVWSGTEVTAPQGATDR
human recombinant H1 receptors, sequence (P35367 whole entry): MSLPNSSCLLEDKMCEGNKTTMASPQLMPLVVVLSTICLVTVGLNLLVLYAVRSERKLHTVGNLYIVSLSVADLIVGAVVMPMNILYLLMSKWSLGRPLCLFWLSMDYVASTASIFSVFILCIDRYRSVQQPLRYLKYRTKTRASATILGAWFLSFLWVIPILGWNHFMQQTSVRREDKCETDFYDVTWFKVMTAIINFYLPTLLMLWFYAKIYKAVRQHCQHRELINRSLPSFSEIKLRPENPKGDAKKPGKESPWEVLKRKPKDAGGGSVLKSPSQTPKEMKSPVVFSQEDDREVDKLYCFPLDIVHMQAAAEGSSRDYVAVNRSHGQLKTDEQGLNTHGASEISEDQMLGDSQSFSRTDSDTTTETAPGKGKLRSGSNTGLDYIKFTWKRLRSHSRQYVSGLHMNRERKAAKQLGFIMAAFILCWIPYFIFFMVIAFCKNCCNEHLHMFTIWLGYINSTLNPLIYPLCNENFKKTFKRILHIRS

| Structure (SMILES) | effect on IL-6 production from macrophages ([1]; eight hours) | effect on IFN-γ production [2] | effect on IL-6 production from T cells [3] | effect on IL-2 production [4] | effect on TNF-α production from macrophages ([5]; eight hours) | effect on IL-5 production [6] | effect on IL-4 production [7, 18] | effect on TNF-α production from T cells [8] | maximum blood concentration [9] [µM] | effect on T cell migration (PHA-stimulated T cells [11]) | IC50 (H2 receptors [12]) [nM] | IC50 [16] [nM] | also measured |
| --- | --- | --- | --- | --- | --- | --- | --- | --- | --- | --- | --- | --- | --- |
| O=C(O)COCCN1CCN(C(c2ccccc2)c2ccc(Cl)cc2)CC1 (centres unmarked) [cetirizine hydrochloride] | no inhibition | did not have a clear effect | did not have a clear effect | did not have a clear effect | no inhibition | did not have a clear effect | did not have a clear effect | did not have a clear effect |  |  |  |  |  |
| NC1=NCC2c3ccccc3Cc3ccccc3N12 (centres unmarked) [epinastine hydrochloride, 3-amino-9,13b-dihydro-1H-dibenz(c,f)imidazol(1,5-a)azepine hydro-chloride] | no inhibition | suppressed | no clear effect | suppressed | no inhibition | inhibited | inhibited | no clear effect | 0.1 | did not have a clear effect | 640 ± 62 |  | efficacy in the improvement of bronchial asthma to a medium degree or greater [10]: 47.0%; IC50 [13]: 1.1 ± 0.16 nM |
| CC(C)(C)c1ccc(C(=O)CCCN2CCC(OC(c3ccccc3)c3ccccc3)CC2)cc1 [ebastine, 4-diphenylmethoxy-1[3-(4-terbutyl-benzoyl)-propyl]piperidine] | suppressed | did not have a clear effect | inhibited | did not inhibit | suppressed | inhibited | inhibited | inhibited |  |  |  |  | suppression of IL-6 production from macrophages ([1]; 1 μM): ≥ 50%; effect on IL-6 production from macrophages ([1]; 10 μM): nearly completely inhibited; suppression of IL-6 production from T cells ([3]; 10 μM to 20 μM): 100%; suppression of TNF-α production from macrophages ([5]; 1 μM): ≥ 50%; effect on TNF-α production from macrophages ([5]; 10 μM): nearly completely inhibited; suppression of IL-5 production ([6]; 20 μM, all donors): 100%; effect on IL-4 production ([7]; 10 μM): nearly completely inhibited; suppression of IL-4 production ([7]; 20 μM, all donors): 100%; adhesion of PHA-stimulated T cells to endothelial cells (PHA-stimulated T cells [14]): suppress; suppression of TNF-α production from T cells ([8]; 10 μM to 20 μM): 100%; effect on QT interval [15]: not to affect |
| CC(C)(C(=O)O)c1ccc(C(=O)CCCN2CCC(OC(c3ccccc3)c3ccccc3)CC2)cc1 [carebastine, 4-[4-[4-(di-phenylmethoxy)-1-piperidinyl]-1-oxobutyl]-α, α-di-methylbenzeneacetic acid] | suppressed | did not have a clear effect | inhibited | did not inhibit | suppressed | inhibited | inhibited | inhibited | 0.1 | suppressed |  | 120 |  |
| CN1CCC(=C2c3ccccc3CC(=O)c3sccc32)CC1 [ketotifen fumarate] | no inhibition | did not have a clear effect | did not have a clear effect | did not have a clear effect | no inhibition | did not have a clear effect | did not have a clear effect | did not have a clear effect | 0.01 | did not have a clear effect | 2200 ± 450 | 2.5 | effect on T cell proliferation (T cells): hardly inhibited |
| CC(C)(C)c1ccc(C(O)CCCN2CCC(C(O)(c3ccccc3)c3ccccc3)CC2)cc1 (centres unmarked) [terfenadine] |  |  |  |  |  |  |  |  |  |  |  |  | inhibition rate to [3H]-tiotidine (H2 receptors [17]): 29% |
